Reference: patent US20250340532A1, “HETEROCYCLIC COMPOUND CCR4 INHIBITOR AND USER THEREOF” (Xizang Haisco Pharmaceutical Co., Ltd., priority 2022, published 2025)

Columns and labels:
[1] = molecular target: T1, CCR4 (Homo sapiens, UniProt P51679); test: Calcium flow detected by FLIPR; type: cell-based; conditions: CCR4/HEK293 cells, agonist CCL17, Fluo-4 calcium signal
T1 construct: expressed in transfected cells; host or cells: HEK293
T1 sequence (P51679 1-360): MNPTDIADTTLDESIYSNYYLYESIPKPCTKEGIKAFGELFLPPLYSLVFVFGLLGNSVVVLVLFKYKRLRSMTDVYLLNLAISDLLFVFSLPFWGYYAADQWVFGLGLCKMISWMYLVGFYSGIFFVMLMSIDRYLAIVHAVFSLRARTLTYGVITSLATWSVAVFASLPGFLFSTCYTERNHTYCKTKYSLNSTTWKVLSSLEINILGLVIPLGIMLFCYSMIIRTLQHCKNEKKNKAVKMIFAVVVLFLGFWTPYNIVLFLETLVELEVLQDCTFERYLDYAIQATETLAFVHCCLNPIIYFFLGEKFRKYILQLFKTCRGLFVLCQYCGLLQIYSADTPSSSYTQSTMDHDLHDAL
Method: CCR4/HEK293 cells were added to a 384-well cell culture plate (Greiner #781946) at a rate of 20 μL/well (20,000 cells/well) and incubated overnight in a 37° C., 5% CO2 incubator (Incubator, Thermo). On the second day, the 384-well cell culture plate was taken out of the incubator and the culture medium was removed; Then, 20 μL of detection buffer and 20 μL of 2X Fluo-4 Direct™ (Invitrogen, Cat #F10471) were added. Then, compounds were added at 10 μL/well (compounds were subjected to 4-fold serial dilution, and the highest detection concentration was 10 μM), and the cells were incubated in a 37° C., 5% CO2 incubator for 50 min, and then incubated at room temperature for 10 min. The 384-well culture plate was placed in FLIPR ([…]), 10 μL of 6X agonist CCL17 was added by using an automatic loader, and the fluorescence signal was read immediately. The mean and standard error (Mean±SEM) were statistically analyzed using Graphpad Prism software, and the IC50 value was calculated.
The experimental results are shown in Table 3, where A represents IC50<100 nm; B represents 100 nM≤IC50<500 nM, and C represents 500 nM≤IC50.

[2] = Pharmacokinetic test in rats; type: in vivo, SD rats
Method: 1.1 Experimental animals: male SD rats, about 220 g, 6-8 weeks old, 6 rats/compound. Purchased from Chengdu Ddossy Experimental Animals Co., Ltd.
1.2 Experimental design: on the day of the experiment, 36 SD rats were randomly grouped according to their body weights. The animals were fasted with water available for 12 to 14 h one day before the administration and were fed 4 h after the administration.
(§1) Before and after the administration, 0.15 ml of blood was taken from the orbit of the animals under isoflurane anesthesia and placed in an EDTAK2 centrifuge tube. The blood was centrifuged at 5000 rpm and 4° C. for 10 min to collect plasma. The blood collection time points for the intravenous administration group and intragastric administration group were: 0, 5 min, 15 min, 30 min, 1 h, 2 h, 4 h, 6 h, 8 h and 24 h. Before analysis and detection, all samples were stored at −80° C., and a quantitative analysis of samples was performed using LC-MS/MS.

[3] = Pharmacokinetic test in mice; type: in vivo, C57 mice
Method: 1.1 Experimental animals: Male C57 mice, 20-25 g, 6 mice/compound. Purchased from Chengdu Ddossy Experimental Animals Co., Ltd.
1.2 Experimental design: On the day of the experiment, 24 C57 mice were randomly grouped according to their body weight. The animals were fasted with water available for 12 to 14 h one day before the administration and were fed 4 h after the administration.
as §1, with “0.06 mL” for “0.15 ml”, “intravenous” for “intravenous administration”, “0 min,” for “0,”, “7” for “6 h, 8”

[4] = Pharmacokinetic test in beagle dogs; type: in vivo; conditions: for AUC(0-t) / clearance / Vd: male, beagle, dog, plasma; for Vd: read-out: Vdss
Method: Experimental animals: male beagle dogs, about 8-11 kg, 6 beagle dogs/compound, purchased from Beijing Marshall Biotechnology Co., Ltd.
Experimental method: On the day of the experiment, 18 beagle dogs were randomly grouped according to their body weights. The animals were fasted with water available for 12 to 14 h one day before the administration and were fed 4 h after the administration.
Before and after the administration, 1 ml of blood was taken from the jugular veins or limb veins, and placed in an EDTAK2 centrifuge tube. Centrifugation was performed at 5000 rpm at 4° C. for 10 min, and plasma was collected. The blood collection time points for the intravenous group and intragastric administration group were: 0 min, 5 min, 15 min, 30 min, 1 h, 2 h, 4 h, 6 h, 8 h, 10 h, 12 h, 24 h, 48 h, and 72 h. Before analysis and detection, all samples were stored at −80° C. The samples were analyzed quantitatively by LC-MS/MS.

[5] = male, SD, rat, iv, plasma, i.v. 2.5 mg/kg
[6] = male, C57, mouse, iv, plasma, i.v. 2.5 mg/kg

IC50 [1] [nM] | F ([2]; i.g. 10 mg/kg) [%] | AUC [2, 5] [ng·h/mL] | clearance [2, 5] [mL/min/kg] | Vd ([2]; male, SD, rat, iv, plasma, i.v. 2.5 mg/kg, read-out: Vdss) [L/kg] | AUC ([2]; male, SD, rat, po, plasma, i.g. 10 mg/kg) [ng·h/mL] | F ([3]; i.g. 10 mg/kg) [%] | AUC(0-t) [3, 6] [ng·h/mL] | clearance [3, 6] [mL/min/kg] | Vd ([3]; male, C57, mouse, iv, plasma, i.v. 2.5 mg/kg, read-out: Vdss) [L/kg] | AUC(0-t) ([3]; male, C57, mouse, po, plasma, i.g. 10 mg/kg) [ng·h/mL] | F ([4]; i.g. 3 mg/kg) [%] | AUC(0-t) ([4]; iv, i.v. 1 mg/kg) [ng·h/mL] | clearance ([4]; iv, i.v. 1 mg/kg) [mL/min/kg] | Vd ([4]; iv, i.v. 1 mg/kg) [L/kg] | AUC(0-t) ([4]; po, i.g. 3 mg/kg) [ng·h/mL] | Structure (SMILES)
< 100 | 80.3 ± 34 | 4630 ± 1030 | 9.19 ± 2.1 | 1.55 ± 0.091 | 14900 ± 6380 | 90.4 ± 14 | 7400 ± 385 | 5.62 ± 0.29 | 1.04 ± 0.055 | 26800 ± 4110 | >98 | 12100 ± 3170 | 1.38 ± 0.4 | 1.2 ± 0.16 | 37700 ± 10100 | Cc1nc(N2CCC(C3CN(C4CC(C)(C(=O)O)C4)CCO3)CC2)nc(NC(C)c2ccc(Cl)cc2Cl)c1Cl (single isomer, unassigned) [Compound 73 isomer 3]
< 100 |  |  |  |  |  |  |  |  |  |  | >98 | 21100 ± 3840 | 0.672 ± 0.14 | 1.04 ± 0.2 | 68400 ± 7190 | CC(Nc1cc(N2CCC(C3CN(C4CC(C)(C(=O)O)C4)CCO3)CC2)ccc1Cl)c1ccc(Cl)cc1Cl (single isomer, unassigned) [Compound 82 isomer 3]
